Earlier results as cited in patent publication US12404524B2, “Expression vector” (priority 2019, dated 2025).

Tested on: common Streptomyces expression strains
Conditions: inducers of Potr and PnitA in single-gene expression experiments

SMILES	effect on physiology or growth rate
CN(C)[C@@H]1C(O)=C(C(N)=O)C(=O)[C@@]2(O)C(O)=C3C(=O)c4c(O)cccc4[C@@](C)(O)[C@H]3[C@H](O)[C@@H]12 [oxytetracycline]	no effect
O=C1CCCCCN1 [ε-caprolactam]	no effect
